Converted amounts (≈) assume the structure as drawn.
Key:
[1] = target: Tubulin; assay: Concentration required to reduce the amount of pelleted tubulin; format: protein-complex assay
[2] = test system: HCT-116; assay: Inhibitory activity against HCT116 cells after 24 hr cell growth; format: functional, cell-based; settings: Homo sapiens, HCT-116, 24 h
[3] = test system: NCI/ADR-RES; assay: Inhibitory activity against MCF7-ADR cells after 72 hr cell growth; format: functional, cell-based; settings: Homo sapiens
[4] = test system: MCF7S; assay: Inhibitory activity against MCF-7 cells after 72 hr cell growth; format: functional, cell-based; settings: Homo sapiens
[5] = test system: KB; assay: Cytotoxicity against KB cells; format: functional, cell-based; settings: Homo sapiens

Row | SMILES | IC50 [1] [nM] | IC50 [2] [nM] | IC50 [3] [nM] | IC50 [4] [nM] | IC50 [5] [ng/mL]
1 | COc1ccc(C[C@H]2NC(=O)/C=C/C[C@@H]([C@H](C)[C@H]3O[C@@H]3c3ccc(C(=O)c4ccccc4)cc3)OC(=O)[C@H](CC(C)C)OC(=O)CCNC2=O)cc1 | 7400 | 1.1 | 70 | 0.078 | –
2 | COc1ccc(C[C@H]2NC(=O)/C=C/C[C@@H]([C@H](C)[C@@H]3O[C@@H]3c3ccc(C(=O)c4ccccc4)cc3)OC(=O)[C@H](CC(C)C)OC(=O)CCNC2=O)cc1 | > 100000 | 253 | 447 | 6 | –
3 | COc1ccc(C[C@H]2NC(=O)/C=C/C[C@@H]([C@H](C)[C@H]3O[C@@H]3c3ccccc3)OC(=O)[C@H](CC(C)C)OC(=O)CCNC2=O)cc1 [ARENASTATIN A] | 15000 | 0.285 | 0.164 | 0.13 | 0.005 (≈ 0.00824 nM)
4 | COc1ccc(C[C@H]2NC(=O)/C=C/C[C@@H]([C@H](C)[C@H]3O[C@@H]3c3ccccc3)OC(=O)[C@H](CC(C)C)OC(=O)[C@H](C)CNC2=O)cc1Cl [CRYPTOPHYCIN A] | 3700 | 0.027 | 0.013 | 0.003 | –
